# How the values were obtained:
# [1] = system: peptide-specific IgG in the serum; assay: ELISA of peptide-specific IgG in sera of HCV patients and healthy donors (Example 1); format: binding, human; details: ELISA, cut-off value 1.83; for Healthy donors (n = 10) Positive n: number of 10 healthy donors with serum IgG reactive to the peptide; for HCV patients (n = 12) Positive n: number of 12 HCV patients with serum IgG reactive to the peptide; for Healthy donors (n = 10) Positive %: share of 10 healthy donors with serum IgG reactive to the peptide; for HCV patients (n = 12) Positive %: share of 12 HCV patients with serum IgG reactive to the peptide
# Experimental: Synthetic peptides having an HLA-A2-binding motif or an HLA-A24-binding motif from a conserved region of HCV genotype 1b protein were used in this study (Table 1). A peptide derived from HIV having an HLA-A2-binding motif was used as a negative control. All of these peptides were purchased from a commercially supplier. The purity was analyzed by reverse-phase high-pressure liquid chromatography and found to be 90% or higher.
# The level of the peptide-specific IgG in the serum was measured by ELISA. First, each peptide was dissolved in dimethyl sulfoxide (DMSO) and stored at −80° C. The peptide was diluted with 0.1 M sodium carbonate/sodium bicarbonate solution containing disuccinimidyl suberate (DSS) as a crosslinker. An ELISA plate was coated with 20 μg/well of peptide at 4° C. overnight. The wells were washed 3 times with 0.05% Tween 20/PBS (PBST), and the plate was blocked with Block Ace (registered trademark) and left overnight at 4° C. Plasma or serum samples were diluted in 1:100, 1:200 and 1:400 with 0.05% Tween 20/Block Ace, and 100 μl of each of the samples was added to each well. After the samples were incubated at 37° C. for 2 hours, the plate was washed 9 times with PBST, 100 μl of a 1:1000 diluted rabbit anti-human IgG (γ-chain specific) was added to each well, and incubated at 37° C. for 2 hours. The plate was washed 9 times with PBST, and 100 μl of 1:100 diluted mouse anti-rabbit IgG conjugated to a horseradish peroxidase-dextran polymer was added to each well, and then the plate was incubated at room temperature for 40 minutes. After the plate was washed, 100 μl of a tetramethylbenzidine substrate solution was added to each well. The reaction was stopped by the addition of 2.0 M phosphoric acid. The cutoff value was calculated as the mean±3 SD of the optical density values of the control obtained from the healthy donors.
# The level of IgG that reacts with each of the 62 types of peptides was measured in the sera from 12 patients infected with HCV and 10 healthy donors (HDs) (Table 1).
# peptide-specific IgG = assay: ELISA screening of peptide-reactive IgG in plasma of 12 HCV-1b patients and 10 HDs (Example 2); format: binding, human; details: plasma dilution 1:100; for Reactivity to peptide-specific IgG HD (n = 10): number of 10 HDs above cut-off 0.18 OD; for Reactivity to peptide-specific IgG Patients (n = 12): number of 12 HCV-1b+ patients above cut-off 0.18 OD
# Excerpt: Forty-four types of synthetic peptides that were derived from a highly conserved region of HCV-1b protein and selected based on a high binding score to HLA-A24 molecule (Bioinformatics and Molecular Analysis Section, NIH, Bethesda, Md.) were used. A peptide derived from HIV that has an HLA-A24 binding motif ([…] (SEQ ID NO: 63)) served as a negative control. For the screening of the reactivity of peptide to serum IgG, desalted grade of the peptides (>70%) were purchased from BioSynthesis (Lewisville, Tex.) or SynPep (Dublin, Calif.). A purified peptide (>90%) was used in the subsequent experiments. The plasma level of peptide-specific IgG was measured by an enzyme-linked immunosorbent assay (ELISA). The specificity of anti-peptide IgG in a plasma sample was tested by the absorption and elution of peptide-reactive IgG.
# In order to screen for a humoral response to the peptides, the level of IgG reactive to each of the 44 types of peptides was assayed in the plasma of 12 patients infected with HCV-1b. The plasma of 10 HDs was used as a negative control. The level of peptide-reactive IgG was measured by ELISA for serially diluted plasma samples and reported by the values of absorbance (OD) of each sample. The cut-off value of these peptides at a plasma dilution of 1:100 was set at 0.18 OD (mean (0.08)+2SD (0.05×2) of 10 HDs). A significant level (>0.18 OD at a plasma dilution of 1:100) of IgG reactive to NS5A-2132, C-176, E2-488, E1-213, C-173 and NS3-1081 peptides were detectable in the plasma of 12, 11, 10, 9, 8 and 5 patients among the 12 patients, respectively (FIG. 9). As expected, none of these peptides was reactive to the plasma from the 10 HDs.
substance,measurement,setting,value
57 (NLPGCSFSI; Hepatitis C Virus) [Peptide 57],Healthy donors (n = 10) Positive n,[1],1
same,HCV patients (n = 12) Positive n,[1],0
same,Healthy donors (n = 10) Positive %,[1],10%
same,HCV patients (n = 12) Positive %,[1],0%
61 (HYRDVLKEM; Hepatitis C Virus) [Peptide 61],Healthy donors (n = 10) Positive n,[1],1
same,HCV patients (n = 12) Positive n,[1],3
same,Healthy donors (n = 10) Positive %,[1],10%
same,HCV patients (n = 12) Positive %,[1],25%
62 (WFMWCLLLL; Hepatitis C Virus) [Peptide 62],Healthy donors (n = 10) Positive n,[1],0
same,HCV patients (n = 12) Positive n,[1],7
same,Healthy donors (n = 10) Positive %,[1],0%
same,HCV patients (n = 12) Positive %,[1],58%
66 (QFKQKALGLL; Hepatitis C Virus) [Peptide 66],Healthy donors (n = 10) Positive n,[1],0
same,HCV patients (n = 12) Positive n,[1],3
same,Healthy donors (n = 10) Positive %,[1],0%
same,HCV patients (n = 12) Positive %,[1],25%
AFTASITSPL [No. 35],Reactivity to peptide-specific IgG HD (n = 10),peptide-specific IgG,0
same,Reactivity to peptide-specific IgG Patients (n = 12),peptide-specific IgG,0
AFYGVWPLL [No. 63],Reactivity to peptide-specific IgG HD (n = 10),peptide-specific IgG,0
same,Reactivity to peptide-specific IgG Patients (n = 12),peptide-specific IgG,0
AYAAQGYKVL [No. 24],Reactivity to peptide-specific IgG HD (n = 10),peptide-specific IgG,0
same,Reactivity to peptide-specific IgG Patients (n = 12),peptide-specific IgG,2
AYALYGVWPL [No. 26],Reactivity to peptide-specific IgG HD (n = 10),peptide-specific IgG,0
same,Reactivity to peptide-specific IgG Patients (n = 12),peptide-specific IgG,2
AYMSKAHGI [No. 11],Reactivity to peptide-specific IgG HD (n = 10),peptide-specific IgG,0
same,Reactivity to peptide-specific IgG Patients (n = 12),peptide-specific IgG,2
AYSQQTRGL [No. 8],Reactivity to peptide-specific IgG HD (n = 10),peptide-specific IgG,0
same,Reactivity to peptide-specific IgG Patients (n = 12),peptide-specific IgG,0
DFKTWLQSKL [No. 36],Reactivity to peptide-specific IgG HD (n = 10),peptide-specific IgG,0
same,Reactivity to peptide-specific IgG Patients (n = 12),peptide-specific IgG,1
EFWESVFTGL [No. 31],Reactivity to peptide-specific IgG HD (n = 10),peptide-specific IgG,0
same,Reactivity to peptide-specific IgG Patients (n = 12),peptide-specific IgG,0
EYVLLLFLL [No. 4],Reactivity to peptide-specific IgG HD (n = 10),peptide-specific IgG,0
same,Reactivity to peptide-specific IgG Patients (n = 12),peptide-specific IgG,2
FFTEVDGVRL [No. 37],Reactivity to peptide-specific IgG HD (n = 10),peptide-specific IgG,0
same,Reactivity to peptide-specific IgG Patients (n = 12),peptide-specific IgG,1
GYGAGVAGAL [No. 23],Reactivity to peptide-specific IgG HD (n = 10),peptide-specific IgG,0
same,Reactivity to peptide-specific IgG Patients (n = 12),peptide-specific IgG,2
GYIPIVGAPL [No. 19],Reactivity to peptide-specific IgG HD (n = 10),peptide-specific IgG,0
same,Reactivity to peptide-specific IgG Patients (n = 12),peptide-specific IgG,1
HYKLFLARL [No. 9],Reactivity to peptide-specific IgG HD (n = 10),peptide-specific IgG,0
same,Reactivity to peptide-specific IgG Patients (n = 12),peptide-specific IgG,0
HYPCTVNFTI [No. 27],Reactivity to peptide-specific IgG HD (n = 10),peptide-specific IgG,0
same,Reactivity to peptide-specific IgG Patients (n = 12),peptide-specific IgG,2
HYRDVLKEM [No. 61],Reactivity to peptide-specific IgG HD (n = 10),peptide-specific IgG,1
same,Reactivity to peptide-specific IgG Patients (n = 12),peptide-specific IgG,3
HYVQMALMKL [No. 21],Reactivity to peptide-specific IgG HD (n = 10),peptide-specific IgG,0
same,Reactivity to peptide-specific IgG Patients (n = 12),peptide-specific IgG,3
IFTITKILL [No. 18],Reactivity to peptide-specific IgG HD (n = 10),peptide-specific IgG,0
same,Reactivity to peptide-specific IgG Patients (n = 12),peptide-specific IgG,3
LFLARLIWWL [No. 33],Reactivity to peptide-specific IgG HD (n = 10),peptide-specific IgG,0
same,Reactivity to peptide-specific IgG Patients (n = 12),peptide-specific IgG,0
LYGVWPLLL [No. 7],Reactivity to peptide-specific IgG HD (n = 10),peptide-specific IgG,0
same,Reactivity to peptide-specific IgG Patients (n = 12),peptide-specific IgG,0
MYTNVDQDL [No. 5],Reactivity to peptide-specific IgG HD (n = 10),peptide-specific IgG,0
same,Reactivity to peptide-specific IgG Patients (n = 12),peptide-specific IgG,0
MYVGGVEHRL [No. 20],Reactivity to peptide-specific IgG HD (n = 10),peptide-specific IgG,0
same,Reactivity to peptide-specific IgG Patients (n = 12),peptide-specific IgG,0
NFISGIQYL [No. 15],Reactivity to peptide-specific IgG HD (n = 10),peptide-specific IgG,0
same,Reactivity to peptide-specific IgG Patients (n = 12),peptide-specific IgG,0
PYFVRAHGL [No. 16],Reactivity to peptide-specific IgG HD (n = 10),peptide-specific IgG,0
same,Reactivity to peptide-specific IgG Patients (n = 12),peptide-specific IgG,0
PYIEQGMQL [No. 14],Reactivity to peptide-specific IgG HD (n = 10),peptide-specific IgG,0
same,Reactivity to peptide-specific IgG Patients (n = 12),peptide-specific IgG,1
QFKQKAIGL [No. 17],Reactivity to peptide-specific IgG HD (n = 10),peptide-specific IgG,0
same,Reactivity to peptide-specific IgG Patients (n = 12),peptide-specific IgG,3
QFKQKALGL [No. 64],Reactivity to peptide-specific IgG HD (n = 10),peptide-specific IgG,0
same,Reactivity to peptide-specific IgG Patients (n = 12),peptide-specific IgG,1
QFKQKALGLL [No. 66],Reactivity to peptide-specific IgG HD (n = 10),peptide-specific IgG,0
same,Reactivity to peptide-specific IgG Patients (n = 12),peptide-specific IgG,1
QYLAGLSTL [No. 6],Reactivity to peptide-specific IgG HD (n = 10),peptide-specific IgG,0
same,Reactivity to peptide-specific IgG Patients (n = 12),peptide-specific IgG,0
QYSPGQRVEF [No. 65],Reactivity to peptide-specific IgG HD (n = 10),peptide-specific IgG,0
same,Reactivity to peptide-specific IgG Patients (n = 12),peptide-specific IgG,0
SFAIKWEYVL [No. 39],Reactivity to peptide-specific IgG HD (n = 10),peptide-specific IgG,0
same,Reactivity to peptide-specific IgG Patients (n = 12),peptide-specific IgG,1
SYTWTGALI [No. 60],Reactivity to peptide-specific IgG HD (n = 10),peptide-specific IgG,0
same,Reactivity to peptide-specific IgG Patients (n = 12),peptide-specific IgG,0
TFLVGLNQYL [No. 29],Reactivity to peptide-specific IgG HD (n = 10),peptide-specific IgG,0
same,Reactivity to peptide-specific IgG Patients (n = 12),peptide-specific IgG,2
TYATYGKFL [No. 10],Reactivity to peptide-specific IgG HD (n = 10),peptide-specific IgG,0
same,Reactivity to peptide-specific IgG Patients (n = 12),peptide-specific IgG,1
TYVYDHLTPL [No. 22],Reactivity to peptide-specific IgG HD (n = 10),peptide-specific IgG,0
same,Reactivity to peptide-specific IgG Patients (n = 12),peptide-specific IgG,2
VFVGLILLTL [No. 30],Reactivity to peptide-specific IgG HD (n = 10),peptide-specific IgG,0
same,Reactivity to peptide-specific IgG Patients (n = 12),peptide-specific IgG,2
WFMWCLLLL [No. 62],Reactivity to peptide-specific IgG HD (n = 10),peptide-specific IgG,0
same,Reactivity to peptide-specific IgG Patients (n = 12),peptide-specific IgG,3
YFITRAEAHL [No. 34],Reactivity to peptide-specific IgG HD (n = 10),peptide-specific IgG,1
same,Reactivity to peptide-specific IgG Patients (n = 12),peptide-specific IgG,1
YYRGLDVSVI [No. 28],Reactivity to peptide-specific IgG HD (n = 10),peptide-specific IgG,0
same,Reactivity to peptide-specific IgG Patients (n = 12),peptide-specific IgG,2

# Source: US20080063643A1, “Peptide Derived From Hepatitis C Virus” (priority 2003, published 2008)
